Results from patent publication EP2002836B1, “Cyclocondensed azaindoles active as kinase inhibitors” (Nerviano Medical Sciences S.r.l., priority 2007, dated 2008).

Assays:
AKT2 = target: T1, AKT2 (Homo sapiens, UniProt P31751); test: Biochemical assay for inhibitors of AKT2 kinase activity (33P trans-phosphorylation, Dowex resin); conditions: 10 nM enzyme, 396 microM ATP, 8.5 microM peptide substrate; read-out: AKT2 IC50 (µM) Biochem assay
T1 construct: made in house
Description: (§1) The N-terminal GST fusion proteins used for the assays were prepared according to the methods described in Kumar, C. C. Biochem. Biophys. ACTA 2001, 1526, 257-268, and in Alessi, D. R.. Biochem. J. 1998 331, 299-308.
(§2) The in vitro kinase inhibition assay was conducted in the same way as described for AKT1. The kinase assay was run with a final enzyme concentration of 10 nM, in the presence of 396 microM ATP, 0.88 nM ^33P-γ-ATP and 8.5 microM substrate, a carboxy-terminally biotinylated peptide of the following sequence: ARKRERTYSFGHHA-biotin. The peptide was obtained in batches of >95% peptide purity from PRIMM labs Inc. (Boston MA, USA).

AKT3 = AKT3 (Homo sapiens, UniProt Q9Y243); test: Biochemical assay for inhibitors of AKT3 kinase activity (33P trans-phosphorylation, Dowex resin); conditions: 1 nM enzyme, 180 microM ATP, 28.5 microM peptide substrate; read-out: AKT3 IC50 (µM) Biochem assay
Description: as §1
as §2, with “1” for “10”, “180” for “396”, “28.5” for “8.5”

AKT1 = AKT1 (Homo sapiens, UniProt P31749); test: Biochemical assay for inhibitors of AKT1 kinase activity (33P trans-phosphorylation, Dowex resin); set-up: made in house; conditions: 5 nM enzyme, 132 microM ATP, 30 microM peptide substrate; read-out: AKT1 IC50 (µM) Biochem assay
Description: as §1
The inhibitory activity of putative kinase inhibitors and the potency of selected compounds were determined using a trans-phosphorylation assay.
A specific substrate was incubated with the kinase in appropriate buffer conditions in the presence of ATP traced with ^33P-γ-ATP (gamma phosphate-labeled, Redivue™ Code Number AH9968, 1000-3000Ci/mmole, Amersham Biosciences Piscataway, NJ, USA), optimal cofactors and test compound.
At the end of the phosphorylation reaction, more than 98% cold and radioactive ATP were captured by an excess of Dowex ion exchange resin. The resin was allowed to settle to the bottom of reaction wells by gravity. Supernatant, containing substrate peptide, was subsequently withdrawn and transferred into a counting plate, and radioactivity (corresponding to phosphate incorporated into peptide) was evaluated by β-counting.
Kinase buffer was composed of 50 mM TRIS pH 7.5 containing10 mM MgCl2, 1 mM DTT, 3 microM Na3VO4, and 0.2 mg/mL BSA. 3X KB is buffer of the same composition and pH as KB, but with three times the concentration of each component. iii.Assay conditions (final concentrations) for AKT1.
as §2, with “The” for “The in vitro kinase inhibition assay was conducted in the same way as described for AKT1. The”, “5” for “10”, “132” for “396”, “30” for “8.5”
The "test" mixture of 15 microL consisting of: • 1) 5 µl/well of 3x Enzyme mix (done in Kinase Buffer 3X), • 2) 5 µl/well of 3x substrate and ATP mix (done in ddH2O), together with ^33P-γ-ATP, • 3) 5 µl/well of 3x test compounds (diluted into ddH2O - 3% DMSO).
For % inhibition studies, dilution plates at 1 mM, 10 microM and 100 microM were prepared in 100% DMSO, then diluted to 3X final desired concentration (30, 3 and 0.3 microM) in ddH2O, 3% DMSO. A Multimek 96 (Beckman Coulter, Inc. 4300 N. Harbor Boulevard, P.O. Box 3100 Fullerton, CA 92834-3100 USA) was used for compound pipetting into test plates.
For IC50 determination, starting solutions of 30 microM compound in 3% DMSO were derived from 1 mM/100% DMSO stock solutions. These 30 microM starting solutions were used for generation of a further 9 serial 1/3 dilutions in ddH20, 3% DMSO, so as to generate a 10-point dilution curve at 3X the final assay concentration. Serial dilution was conducted in 96-well plates using a Biomek 2000 (Beckman Coulter) system. Dilution curves of 7 compounds/plate were prepared, and each plate also included a 10-point dilution curve of Staurosporine, as well as several negative and positive control wells.
384-well plates, V bottom (test plates) are prepared with 5 µl of the compound dilution (3X) and then placed onto a PlateTrak 12 robotized station (Perkin Elmer; the robot has one 384-tips pipetting head for starting the assay plus one 96-tips head for dispensing the resin) together with one reservoir for the Enzyme mix (3X) and one for the ATP mix (3X).
At the start of the run, the robot aspirates 5 µl of ATP mix, makes an air gap inside the tips (3 µl) and aspirates 5 µl of AKT mix. The following dispensation into the plates allows the kinase reaction to start upon 3 cycles of mixing, done by the robot itself.
The robot incubates the plates for 60 minutes at room temperature, and then stops the reaction by pipetting 70 µl of dowex resin suspension into the reaction mix. Three cycles of mixing are done immediately after the addition of the resin.
Another mixing cycle is performed after all the plates are stopped, this time using normal tips: the plates are then allowed to rest for about one hour in order to maximize ATP capture. […]

AKT1, sequence (P31749 whole entry): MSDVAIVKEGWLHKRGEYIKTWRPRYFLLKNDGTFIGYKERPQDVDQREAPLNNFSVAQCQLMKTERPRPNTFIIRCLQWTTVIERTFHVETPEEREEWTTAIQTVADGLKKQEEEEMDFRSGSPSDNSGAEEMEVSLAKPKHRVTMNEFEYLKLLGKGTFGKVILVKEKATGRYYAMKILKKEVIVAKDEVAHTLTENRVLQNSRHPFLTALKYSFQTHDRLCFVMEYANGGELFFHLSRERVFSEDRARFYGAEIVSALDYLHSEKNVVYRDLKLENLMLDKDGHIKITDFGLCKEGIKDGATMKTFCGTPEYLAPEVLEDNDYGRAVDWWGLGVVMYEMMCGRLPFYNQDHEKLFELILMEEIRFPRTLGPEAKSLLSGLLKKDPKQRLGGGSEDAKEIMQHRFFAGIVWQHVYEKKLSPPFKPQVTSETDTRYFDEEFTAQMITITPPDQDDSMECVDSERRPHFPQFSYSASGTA
AKT3, sequence (Q9Y243 2-479): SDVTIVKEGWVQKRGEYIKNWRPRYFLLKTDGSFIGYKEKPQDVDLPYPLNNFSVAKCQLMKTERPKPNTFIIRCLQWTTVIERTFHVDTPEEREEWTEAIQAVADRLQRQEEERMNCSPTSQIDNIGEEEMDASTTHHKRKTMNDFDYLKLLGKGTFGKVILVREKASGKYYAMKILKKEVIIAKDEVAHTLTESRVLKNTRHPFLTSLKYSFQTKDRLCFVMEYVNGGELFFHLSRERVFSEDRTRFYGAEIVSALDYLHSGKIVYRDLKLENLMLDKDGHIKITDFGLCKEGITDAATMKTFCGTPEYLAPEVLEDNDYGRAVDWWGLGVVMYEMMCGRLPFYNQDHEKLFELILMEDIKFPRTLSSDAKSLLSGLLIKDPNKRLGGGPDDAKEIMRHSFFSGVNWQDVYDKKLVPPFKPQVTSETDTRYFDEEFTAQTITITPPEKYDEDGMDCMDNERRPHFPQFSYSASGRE
T1 sequence (P31751 whole entry, species assumed): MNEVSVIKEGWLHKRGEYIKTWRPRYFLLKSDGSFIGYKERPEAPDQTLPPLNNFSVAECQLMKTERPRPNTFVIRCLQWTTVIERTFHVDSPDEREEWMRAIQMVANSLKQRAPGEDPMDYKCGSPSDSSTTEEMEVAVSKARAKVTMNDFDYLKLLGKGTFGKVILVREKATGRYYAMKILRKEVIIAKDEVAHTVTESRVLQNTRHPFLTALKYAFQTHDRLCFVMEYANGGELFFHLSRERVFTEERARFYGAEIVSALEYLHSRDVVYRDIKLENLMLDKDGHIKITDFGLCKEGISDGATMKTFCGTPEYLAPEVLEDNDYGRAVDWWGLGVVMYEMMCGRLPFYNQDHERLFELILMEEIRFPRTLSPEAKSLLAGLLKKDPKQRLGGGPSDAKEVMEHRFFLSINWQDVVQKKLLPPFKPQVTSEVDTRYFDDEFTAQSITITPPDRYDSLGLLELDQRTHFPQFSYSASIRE

Row | IC50 (AKT2) | IC50 (AKT3) | IC50 (AKT1) | Compound
1 | 0.797 µM | 0.717 µM | 0.132 µM | NC[C@H](Cc1ccccc1)NC(=O)c1cc2c3c(nccc3c1)NC2 [Cpd. 7, N-[(1S)-2-amino-1-benzylethyl]-1,2-dihydropyrrolo[4,3,2-ij]isoquinoline-4-carboxamide]
2 | 1.86 µM | 1.06 µM | 0.431 µM | O=C(N[C@H](CN1CCCC1)c1ccccc1)c1cc2c3c(nccc3c1)NC2 [Cpd. 8, N-[(1S)-1-phenyl-2-pyrrolidin-1-ylethyl]-1,2-dihydropyrrolo[4,3,2-ij]isoquinoline-4-carboxamide]
